# Reference: PubChem BioAssay AID1259407 (Chemical Carcinogenesis Research Information System (CCRIS), 2018)
# Calls of active or inactive are those of the source. The rule behind the calls is not given here.
# System: CCRIS mutagenicity, Ames/micronucleus/aberration tests
# Assay: CCRIS mutagenicity studies
# [1] = Test System: AMES SALMONELLA TYPHIMURIUM, Strain/Indicator: TA98, Metabolic Activation: NONE, Method: STANDARD PLATE
# [2] = Test System: AMES SALMONELLA TYPHIMURIUM, Strain/Indicator: TA100, Metabolic Activation: NONE, Method: STANDARD PLATE
structure (smiles),measurement,setting,value
CCC(CO)[N+](=O)[O-] (centres undefined),mutagenic call,"Test System: AMES SALMONELLA TYPHIMURIUM, Strain/Indicator: TA97, Metabolic Activation: HAMSTER, LIVER, S-9, AROCLOR 1254 (10%), Method: PREINCUBATION",inactive; negative
same,mutagenic call,"Test System: AMES SALMONELLA TYPHIMURIUM, Strain/Indicator: TA97, Metabolic Activation: HAMSTER, LIVER, S-9, AROCLOR 1254 (30%), Method: PREINCUBATION",inactive; negative
same,mutagenic call,"Test System: AMES SALMONELLA TYPHIMURIUM, Strain/Indicator: TA97, Metabolic Activation: NONE, Method: PREINCUBATION",inactive; negative
same,mutagenic call,"Test System: AMES SALMONELLA TYPHIMURIUM, Strain/Indicator: TA97, Metabolic Activation: RAT, LIVER, S-9, AROCLOR 1254 (10%), Method: PREINCUBATION",inactive; negative
same,mutagenic call,"Test System: AMES SALMONELLA TYPHIMURIUM, Strain/Indicator: TA97, Metabolic Activation: RAT, LIVER, S-9, AROCLOR 1254 (30%), Method: PREINCUBATION",inactive; negative
same,mutagenic call,"Test System: AMES SALMONELLA TYPHIMURIUM, Strain/Indicator: TA98, Metabolic Activation: HAMSTER, LIVER, S-9, AROCLOR 1254 (10%), Method: PREINCUBATION",inactive; negative
same,mutagenic call,"Test System: AMES SALMONELLA TYPHIMURIUM, Strain/Indicator: TA98, Metabolic Activation: HAMSTER, LIVER, S-9, AROCLOR 1254 (30%), Method: PREINCUBATION",inactive; negative
same,mutagenic call,"Test System: AMES SALMONELLA TYPHIMURIUM, Strain/Indicator: TA98, Metabolic Activation: NONE, Method: PREINCUBATION",inactive; negative
same,mutagenic call,"Test System: AMES SALMONELLA TYPHIMURIUM, Strain/Indicator: TA98, Metabolic Activation: RAT, LIVER, S-9, AROCLOR 1254 (10%), Method: PREINCUBATION",inactive; negative
same,mutagenic call,"Test System: AMES SALMONELLA TYPHIMURIUM, Strain/Indicator: TA98, Metabolic Activation: RAT, LIVER, S-9, AROCLOR 1254 (30%), Method: PREINCUBATION",inactive; negative
same,mutagenic call,"Test System: AMES SALMONELLA TYPHIMURIUM, Strain/Indicator: TA98, Metabolic Activation: RAT, LIVER, S-9, AROCLOR, Method: PREINCUBATION",inactive; negative
same,mutagenic call,"Test System: AMES SALMONELLA TYPHIMURIUM, Strain/Indicator: TA100, Metabolic Activation: HAMSTER, LIVER, S-9, AROCLOR 1254 (10%), Method: PREINCUBATION",inactive; negative
same,mutagenic call,"Test System: AMES SALMONELLA TYPHIMURIUM, Strain/Indicator: TA100, Metabolic Activation: HAMSTER, LIVER, S-9, AROCLOR 1254 (30%), Method: PREINCUBATION",inactive; negative
same,mutagenic call,"Test System: AMES SALMONELLA TYPHIMURIUM, Strain/Indicator: TA100, Metabolic Activation: NONE, Method: PREINCUBATION",inactive; negative
same,mutagenic call,"Test System: AMES SALMONELLA TYPHIMURIUM, Strain/Indicator: TA100, Metabolic Activation: RAT, LIVER, S-9, AROCLOR 1254 (10%), Method: PREINCUBATION",inactive; negative
same,mutagenic call,"Test System: AMES SALMONELLA TYPHIMURIUM, Strain/Indicator: TA100, Metabolic Activation: RAT, LIVER, S-9, AROCLOR 1254 (30%), Method: PREINCUBATION",inactive; negative
same,mutagenic call,"Test System: AMES SALMONELLA TYPHIMURIUM, Strain/Indicator: TA100, Metabolic Activation: RAT, LIVER, S-9, AROCLOR, Method: PREINCUBATION",inactive; negative
same,mutagenic call,"Test System: AMES SALMONELLA TYPHIMURIUM, Strain/Indicator: TA102, Metabolic Activation: NONE, Method: PREINCUBATION",inactive; negative
same,mutagenic call,"Test System: AMES SALMONELLA TYPHIMURIUM, Strain/Indicator: TA102, Metabolic Activation: RAT, LIVER, S-9, AROCLOR, Method: PREINCUBATION",inactive; negative
same,mutagenic call,"Test System: AMES SALMONELLA TYPHIMURIUM, Strain/Indicator: TA1535, Metabolic Activation: HAMSTER, LIVER, S-9, AROCLOR 1254 (10%), Method: PREINCUBATION",inactive; negative
same,mutagenic call,"Test System: AMES SALMONELLA TYPHIMURIUM, Strain/Indicator: TA1535, Metabolic Activation: HAMSTER, LIVER, S-9, AROCLOR 1254 (30%), Method: PREINCUBATION",inactive; negative
same,mutagenic call,"Test System: AMES SALMONELLA TYPHIMURIUM, Strain/Indicator: TA1535, Metabolic Activation: NONE, Method: PREINCUBATION",inactive; negative
same,mutagenic call,"Test System: AMES SALMONELLA TYPHIMURIUM, Strain/Indicator: TA1535, Metabolic Activation: RAT, LIVER, S-9, AROCLOR 1254 (10%), Method: PREINCUBATION",inactive; negative
same,mutagenic call,"Test System: AMES SALMONELLA TYPHIMURIUM, Strain/Indicator: TA1535, Metabolic Activation: RAT, LIVER, S-9, AROCLOR 1254 (30%), Method: PREINCUBATION",inactive; negative
same,mutagenic call,"Test System: AMES SALMONELLA TYPHIMURIUM, Strain/Indicator: TA1537, Metabolic Activation: HAMSTER, LIVER, S-9, AROCLOR 1254 (30%), Method: PREINCUBATION",inactive; negative
same,mutagenic call,"Test System: AMES SALMONELLA TYPHIMURIUM, Strain/Indicator: TA1537, Metabolic Activation: NONE, Method: PREINCUBATION",inactive; negative
same,mutagenic call,"Test System: AMES SALMONELLA TYPHIMURIUM, Strain/Indicator: TA1537, Metabolic Activation: RAT, LIVER, S-9, AROCLOR 1254 (30%), Method: PREINCUBATION",inactive; negative
COc1cccc(/C=C/c2ccc(N)cc2)c1,mutagenic call,"Test System: AMES SALMONELLA TYPHIMURIUM, Strain/Indicator: TA98(1,8-DNP6), Metabolic Activation: NONE, Method: STANDARD PLATE",inactive; negative
same,mutagenic call,"Test System: AMES SALMONELLA TYPHIMURIUM, Strain/Indicator: TA98(1,8-DNP6), Metabolic Activation: S-9, Method: STANDARD PLATE",active; positive
same,mutagenic call,[1],active; positive
same,mutagenic call,"Test System: AMES SALMONELLA TYPHIMURIUM, Strain/Indicator: TA98, Metabolic Activation: S-9, Method: STANDARD PLATE",active; positive
same,mutagenic call,[2],inactive; negative
same,mutagenic call,"Test System: AMES SALMONELLA TYPHIMURIUM, Strain/Indicator: TA100, Metabolic Activation: S-9, Method: STANDARD PLATE",active; positive
COc1cccc2c1C(=O)c1c(O)c3c(c(O)c1C2=O)C[C@@](O)(C(=O)CO)C[C@@H]3O[C@H]1C[C@H](N)C[C@H](C)O1,mutagenic call,"Test System: AMES SALMONELLA TYPHIMURIUM, Strain/Indicator: GW257, Metabolic Activation: NONE, Method: STANDARD PLATE",active; positive
same,mutagenic call,[1],active; positive
same,mutagenic call,[2],active; positive
same,mutagenic call,"Test System: AMES SALMONELLA TYPHIMURIUM, Strain/Indicator: TA1538, Metabolic Activation: NONE, Method: STANDARD PLATE",active; positive
same,mutagenic call,"Test System: CHINESE HAMSTER V-79, Strain/Indicator: V-79/6-THIOGUANINE, Metabolic Activation: NONE, Method: SUSPENSION/PLATE",active; positive
same,mutagenic call,"Test System: CHINESE HAMSTER V-79, Strain/Indicator: V-79/6-THIOGUANINE, Metabolic Activation: RAT, LIVER, HOMOGENATE, Method: SUSPENSION/PLATE",inactive; negative
